These results are taken from ChEMBL document CHEMBL1201862, “PubChem BioAssay data set” (2004).

What all share (experiment): DTP human tumour cell line panel, 48 h
Assay [1] deals with MCF7.
For assay [2], the system named is OVCAR-4.
Assay [3] relates to BT-549.
In assay [4] the test system is HT-29.
The subject of assay [5] is UO-31.
In assay [6] the test system is Malme-3M.
The subject of assay [7] is SK-OV-3.
The subject of assay [8] is SNB-19.
For assay [9], the system named is M14.
Assay [10] deals with 786-0.
Assay [11] has as its system DU-145.
The subject of assay [12] is COLO 205.
Assay [13] relates to RXF 393.
The subject of assay [14] is HOP-62.
The test system of assay [15] is OVCAR-5.
Assay [16] deals with RPMI-8226.
The subject of assay [17] is U-251.
For assay [18], the system named is Hs-578T.
In assay [19] the test system is HCC 2998.

The structures appear in SMILES notation.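 In this assay, cells in 96-well plates receive the compound at five concentrations for 48 hours. Endpoints are linearly interpolated between the surrounding concentrations. At the GI50, growth is halved.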 Activity calls are given as the source filed them. Rule as the data show it: active = GI50 up to about 1.1 µM and inactive = higher. Where only a bound is given, the exact number is not on record here.

The GI50 is the concentration that inhibits growth by half. For the molecule `O=C(O)C/C(=C\c1ccco1)C(=O)O`, the GI50 in assay [1], in assay [2], in [3], in [4], in [5] and in assay [6] was > 100 µM (inactive) each time. In addition, the GI50 in assay [7], in assay [8], in [9], in assay [10], in [11] and in assay [12] was > 100 µM (inactive) throughout. The GI50 in [13], in assay [14], in assay [15], in assay [16] and in assay [17] was > 100 µM (inactive) throughout.

For the molecule `Oc1c(/N=N\c2ccccc2)c2cccc3ccc4cccc1c4c32`, the GI50 in assay [2] was 43.2 µM (inactive); in assay [3] it was > 100 µM (inactive); in [18], 33.7 µM (inactive); in [4], > 100 µM (inactive); in [5], > 100 µM (inactive); in [6], > 100 µM (inactive). For the same molecule, the GI50 in [7] is > 100 µM (inactive); in assay [8] it was > 100 µM (inactive); in assay [9], > 100 µM (inactive); in [10], 43.7 µM (inactive); in assay [11] it was > 100 µM (inactive); in [12] it was > 100 µM (inactive). The GI50 in [13] is > 100 µM (inactive); in assay [14], 29.6 µM (inactive); in assay [15], > 100 µM (inactive); in [16] it was > 100 µM (inactive); in assay [17] it was 42.7 µM (inactive).

In the case of `O=C(/C=C/c1ccsc1)c1ccc(Cl)s1`, the GI50 in assay [1] is 22.5 µM (inactive); in assay [2], > 100 µM (inactive); in assay [18] it was > 100 µM (inactive); in assay [4] it was 34 µM (inactive); in assay [5], 78.9 µM (inactive); in [6], > 100 µM (inactive). Also, the GI50 in assay [7] was > 100 µM (inactive); in [8] it was > 100 µM (inactive); in assay [9], > 100 µM (inactive); in assay [10], > 10 µM (inactive); in assay [11], > 100 µM (inactive); in assay [12], > 100 µM (inactive). Further, the GI50 in assay [14] is > 100 µM (inactive); in assay [19], 31.7 µM (inactive); in assay [16], 17.1 µM (inactive); in [17] it was > 100 µM (inactive).

As for `CC(C)(NO)/C(=N\O)c1ccccc1`, the GI50 in [1], in assay [2], in assay [3], in assay [4], in [5] and in assay [6] was > 10 µM (inactive) throughout. Besides, the GI50 in [8], in assay [9], in assay [10], in [11], in [12] and in assay [13] was > 10 µM (inactive) each time. Moreover, the GI50 in [14], in [15], in assay [19], in assay [16] and in assay [17] was > 10 µM (inactive) each time.

`CN1N=C(c2ccncc2)OC1c1cccc(C(F)(F)F)c1` (configuration not stated): the GI50 in [2], in [18], in assay [4], in assay [5], in assay [7] and in assay [8] was > 100 µM (inactive) each time. In addition, the GI50 in assay [9], in assay [10], in [11], in assay [12], in [13] and in assay [14] was > 100 µM (inactive) each time. Moreover, the GI50 in assay [15], in assay [19], in assay [16] and in assay [17] was > 100 µM (inactive) in each case.

Regarding `COc1cc(C)c(/C=C/C(=O)N2C(=O)OC[C@@H]2c2ccccc2)c(C)c1`, the GI50 in assay [2] was 81.3 µM (inactive); in assay [18], 88.9 µM (inactive); in [4], 18.6 µM (inactive); in assay [5], > 100 µM (inactive); in assay [6], > 100 µM (inactive); in assay [7], > 100 µM (inactive). In addition, the GI50 in [8] was > 100 µM (inactive); in [9] it was > 100 µM (inactive); in [10], > 100 µM (inactive); in assay [11], 37.6 µM (inactive); in [12], > 100 µM (inactive); in assay [13], 9.02 µM (inactive). In addition, the GI50 in assay [14] is > 100 µM (inactive); in [15], > 100 µM (inactive); in [19], 73.1 µM (inactive); in assay [16] it was 48.3 µM (inactive); in [17], > 100 µM (inactive).

For the molecule `CS(=O)(=O)OCCN1CCC2(CC1)SSC1(CCN(CCOS(C)(=O)=O)CC1)S2`, the GI50 in assay [1] was 17.1 µM (inactive); in assay [2], 62.1 µM (inactive); in assay [3], 45.5 µM (inactive); in [18] it was 82.6 µM (inactive); in assay [4], 50.5 µM (inactive); in [5], 45 µM (inactive). For the same molecule, the GI50 was 22.8 µM (inactive) in assay [6]; 64.4 µM (inactive) in assay [7]; 69.3 µM (inactive) in assay [8]; > 100 µM (inactive) in [9]; 56.9 µM (inactive) in assay [10]; 28.7 µM (inactive) in [12]. In addition, the GI50 was > 100 µM (inactive) in [14], 24 µM (inactive) in assay [15], 8.87 µM (inactive) in assay [16] and 72.6 µM (inactive) in assay [17].

Regarding `CC1NS(=O)(=O)N(C)C1=O` (configuration not stated), the GI50 in assay [2] was > 100 µM (inactive); in assay [6], > 100 µM (inactive); in assay [7], > 100 µM (inactive); in assay [9] it was > 100 µM (inactive); in assay [10] it was > 10 µM (inactive); in assay [13], > 100 µM (inactive). In addition, the GI50 in [14], in [15], in assay [19], in assay [16] and in assay [17] was > 100 µM (inactive) in each case.

As to `CCc1n[nH]c(=O)n1O`, the GI50 in [1], in assay [2], in assay [3], in [18], in assay [4] and in assay [5] was > 100 µM (inactive) throughout. In addition, the GI50 in assay [6], in assay [7], in assay [8], in [10], in assay [11] and in [12] was > 100 µM (inactive) throughout. Further, the GI50 in assay [14] and in [17] was > 100 µM (inactive) throughout.

Take `COc1ccc2c(c1)OCC1(O)Cc3ccccc3OC21` (configuration not stated): the GI50 was > 100 µM (inactive) in [1]; 49.3 µM (inactive) in assay [2]; > 100 µM (inactive) in [3]; > 100 µM (inactive) in assay [4]; > 100 µM (inactive) in assay [5]; > 100 µM (inactive) in assay [6]. The GI50 in assay [7], in [9], in assay [10], in assay [11], in assay [12] and in [14] was > 100 µM (inactive) each time. Besides, the GI50 in [15], in assay [19], in [16] and in assay [17] was > 100 µM (inactive) in each case.

Regarding `Cc1ccc(-c2c(C#N)c(-c3ccc([N+](=O)[O-])cc3)c(C#N)c(=O)n2NS(=O)(=O)c2ccc(C)cc2)cc1`, the GI50 in assay [1] is 24.9 µM (inactive); in assay [2] it was 41.5 µM (inactive); in assay [3] it was 16.5 µM (inactive); in assay [18], 30.7 µM (inactive); in assay [4], 56.4 µM (inactive); in assay [6] it was 96.4 µM (inactive). The GI50 in [7] was 36.6 µM (inactive); in assay [8], 56.6 µM (inactive); in [9], 54.1 µM (inactive); in [10], 65 µM (inactive); in assay [12] it was 80.4 µM (inactive); in [13] it was 52.2 µM (inactive). The GI50 in assay [14] is 67.1 µM (inactive); in assay [15], > 100 µM (inactive); in [19], 29.4 µM (inactive); in assay [16], 18.9 µM (inactive); in assay [17], 44.8 µM (inactive).

Regarding `COc1ccc2nc3c(C(=O)NCCN(C)C)cccc3nc2c1`, the GI50 is 6.58 µM (inactive) in [2]; 4.17 µM (inactive) in assay [4]; 4.89 µM (inactive) in [5]; 9.04 µM (inactive) in assay [7]; 6.21 µM (inactive) in assay [8]; 5.56 µM (inactive) in assay [9]. Besides, the GI50 in [10] was 7 µM (inactive); in assay [12], 4.28 µM (inactive); in [14], 7.23 µM (inactive); in assay [15], 11.2 µM (inactive); in [19], 6.76 µM (inactive); in [17] it was 5 µM (inactive).

Regarding `Cc1ccc2c(O)cc(-c3sc4ccccc4c3C)nc2n1`, the GI50 in assay [1] is 41.7 µM (inactive); in assay [2], 19.1 µM (inactive); in [3] it was 16.9 µM (inactive); in assay [18] it was 19.9 µM (inactive); in assay [4] it was 25.9 µM (inactive); in [5], 0.661 µM (active). Besides, the GI50 in assay [6] was 16.7 µM (inactive); in assay [7], 21.7 µM (inactive); in assay [8], 29.9 µM (inactive); in assay [9], 17.5 µM (inactive); in assay [10], 20.5 µM (inactive); in [11], 22.9 µM (inactive). In addition, the GI50 in [12] is 23.4 µM (inactive); in [14], 25.1 µM (inactive); in assay [15], 34 µM (inactive); in assay [16] it was 14.5 µM (inactive).
